# In patent publication US10875856B2, “CPAP-tubulin module” (UNIVERSITAET ZU KOELN, priority 2015, dated 2020):
# pIC50: −log10 of the molar value. Entries after “also recorded” stand apart in the source; their conditions may differ. Read-outs that look alike come from different tables or passages of the source.
# Tests used:
# [1] = system: CPAP-tubulin interaction; assay: AlphaScreen assay of inhibition of the CPAP-tubulin interaction (normalized AlphaScreen signal; triplicate determination; TruHit kit as counter-control); assay type: binding
# From the text: FIGS. 1 to 4, 19 and 20 show normalized AlphaScreen signal for conventional tubulin binders Vinblastin (FIG. 1), Paclitaxel (FIG. 2), Docetaxel (FIG. 3) Colchicin (FIG. 4), Bactallin III (FIG. 19) and Taxol (FIG. 20).
# Most tubulin-binding agents act on spindle microtubules and thus prevent mitosis nonspecifically.
# The Error bars in FIGS. 1 to 16, 19 and 20 indicate data from a triplicate determination. The TruHit Kit captures possible effects on AlphaScreen assay technology.
# [2] = system: BT549, MDA-MB-231, PC9, H1975T790M, HCC827, POP10 cells; assay: cancer cell proliferation, spectrum of cancer cell lines; assay type: cell-based; settings: range over BT549, MDA-MB-231, PC9, H1975T790M
# Method: (§1) To evaluate the effect of compound (A) in cancer cells, a spectrum of breast cancer-(BT549, MDA-MB-231), lung cancer-(TKI-sensitive PC9, TKI-resistant H1975^T790M or HCC827 with C-met amplification) and hepatocellular carcinoma-(POP10) cells was treated with compound (A) for 24 h.
# The effects of compound (B) on a spectrum of breast cancer-(BT549, MDA-MB-231),NSCLC-(PC9, TM-resistant H1975T790M, HCC827-GR) and hepatocellular-carcinoma-(POP10)-cells were tested by treatment with compound (B) for 72 hrs.
# [3] = system: Plk-4-inducible MCF10A cells; assay: tolerability and cellular toxicity in Plk-4-inducible MCF10A; assay type: cell-based, human
# From the text: Building on Example 1, a proof-of-principle experiment was established in which lentiviral-mediated transduction of constitutive or doxycycline-inducible CPAP^F375A that cannot interact with tubulin (hereafter CPAPΔT) was introduced into non-transformed human mammary epithelial MCF10A cells. These MCF10A cells are engineered to regulate centrosome amplification via doxycycline-inducible overexpression of Polo-Like-Kinase (PLK4). Introducing CPAPΔT prematurely activated Plk4-induced extra-centrosomes in interphase to nucleate microtubules and prevented them from clustering.
# Since compound (A) is a tubulin binder, its tolerability and cellular toxicity in comparison to taxol in Plk-4-inducible MCF10A was evaluated.
# [4] = system: cancer cells; assay: 24 h EdU pulse labeling experiment; assay type: cell-based; settings: 24 h pulse labeling
# [5] = system: subcutaneous human prostate tumor cell (PC3) xenografts; assay: PC3 xenograft in nude mice; assay type: in vivo
# Method: To evaluate the anti-tumor activity of compound (A), compound (A) was delivered to nude mice bearing subcutaneous human prostate tumor cell (PC3) xenografts. Compound (A) was administered (10 mg/kg) by oral gavage once per day and the rate of tumor growth was monitored. Compared to vehicle treated controls, it was noticed a reduction in tumor growth rate in compound-(A)-treated mice. Importantly, the anti-tumor activity of compound (A) could be observed as determined by reduced tumor volume with respect to control at day 10.
# (§2) To evaluate if compound (B) has anti-tumor activity in vivo, nude mice bearing subcutaneous human prostate (PC3) and breast (MDA-MB-231) tumor xenografts were used.
# (§3) In each case, two groups of mice bearing tumor volume >100 mm^3 were used. Compound (B) (10 or 20 mg, Kg-1/day) by oral gavage was delivered. At the end of treatment, we measured the total tumor volume of compound (B)-treated groups and compared with vehicle-treated controls.
# [6] = system: extra-centrosomes in cancer cells; assay: cell-based assay of centrosome declustering activity
# Method: as §1
# [7] = system: MDA-MB-231 cells expressing tubulin-GFP; assay: live cell experiments, MDA-MB-231 tubulin-GFP; assay type: cell-based
# [8] = system: MCF10A (+Dox, extra centrosomes) and HCC827-GR cells; assay: live imaging of extra-centrosome cells; assay type: cell-based, human
# [9] = system: Cep152, PCNT and CDK5RAP2 recruitment to interphase centrosomes of MCF10A cells; assay: PCM protein recruitment to interphase centrosomes (imaging, heat map intensity); assay type: cell-based, human; settings: versus vehicle
# From the text: Mechanisms by which compound (B) activates extra centrosomes to nucleate enhanced microtubules were identified. Peri-centriolar material (PCM) recruitment to centrosomes is required for microtubule nucleation.
# To test this, we estimated the amounts of Cep152, PCNT and CDK5RAP2 recruitment to interphase centrosomes of compound (B)—treated MCF10A cells.
# [10] = system: 3D-organotypic cultures of H1975T790M, HCC827-GR and A549; assay: 3D organotypic culture invasion model; assay type: cell-based
# From the text: Further, to test whether preventing CPAP-tubulin interaction could impair cancer cell invasiveness, a three-dimensional (3D) organotypic culture model for cancer cells was adapted that recapitulates many aspects of human epithelial cancer tissue architecture.
# [11] = solubility; assay type: physicochemical
# [12] = system: two-centrosomes containing cells; assay: live imaging for microtubule toxic effect; assay type: cell-based
# Method: Except compound (B), neither of the tested tubulin binders could perturb CPAP-tubulin interaction, enhance PCM recruitment to interphase centrosomes and prevent extra centrosomes from clustering. […] In addition, to rule out the possible microtubule toxic effect of compound (B), live imaging experiments were performed.
# [13] = system: subcutaneous human breast (MDA-MB-231) tumor xenografts; assay: MDA-MB-231 xenograft in nude mice; assay type: in vivo
# Method: as §2, §3
# [14] = system: CPAP-tubulin interaction in MCF10A cells; assay: immunopurification of CPAP complexes from treated cells; assay type: cell-based, human; settings: CPAP complexes from cytoplasmic extracts of MCF10A
# Method: Finally, it was tested if compound (B) could prevent CPAP-tubulin interaction in cells and simultaneously enhance the ability of CPAP to bind its interacting proteins. CPAP complexes from cytoplasmic extracts of compound (B)-treated MCF10A cells were immunopurified.
# [15] = stability; assay type: physicochemical
# [16] = system: A549 cells; assay: cell proliferation with erlotinib, A549; assay type: cell-based
# [17] = system: H827 cells; assay: cell proliferation with erlotinib, H827; assay type: cell-based
smiles,measurement,setting,value
CCC(CO)Nc1ncc2cc3ccccc3nc2c1C#N (racemic) [Racemic mixture of compounds C and C‘],IC50,[1]; values given in µM,1.39 µM
N#Cc1c(Cl)ncc2cc3ccccc3nc12 [Compound D],IC50,[1]; values in nM,0.023 µM
N#Cc1c(NCc2ccccc2)ncc2cc3ccccc3nc12 [Compound E],IC50,[1]; values given in µM,1.21 µM
Nc1n[nH]c2ncc3cc4ccccc4nc3c12 [Compound F],IC50,[1]; values given in µM,6.94 µM
N#Cc1c(Sc2ccccc2)ncc2cc3ccccc3nc12 [Compound G],IC50,[1]; values in nM,0.211 µM
N#Cc1c(SCC(=O)Nc2ccccc2)ncc2cc3ccccc3nc12 [Compound I],IC50,[1]; values given in µM,1.76 µM
N#Cc1c(N2CCCCCC2)ncc2cc3ccccc3nc12 [Compound J],IC50,[1]; values given in µM,6.32 µM
N#Cc1c(N2CCCCC2)ncc2cc3ccccc3nc12 [Compound L],IC50,[1]; values given in µM,1.88 µM
"CC(=O)O[C@H]1C(=O)[C@@]2(C)[C@H]([C@H](OC(=O)c3ccccc3)[C@]3(O)C[C@H](OC(=O)[C@H](O)[C@@H](NC(=O)c4ccccc4)c4ccccc4)C(C)=C1C3(C)C)[C@]1(OC(C)=O)CO[C@@H]1C[C@@H]2O [Paclitaxel, reference compound]",IC50,[1]; values given in µM,52.6 µM
CCCCNc1ncc2cc3ccccc3nc2c1C#N [compound (A)],pIC50,"[2]; HCC827, POP10, treated 24 h",5.54 to 6.07
same,proliferation of MCF10A cells that harbor extra centrosomes,[3],specifically inhibited
same,concentration tolerated without defect in bipolar mitotic spindles,[3]; MCF10A cells with two centrosomes,up to 10 μM
same,number of cancer cells with EdU incorporation,[4],reduced number
same,tumor growth rate versus vehicle,"[5]; PC3, 10 mg/kg oral gavage once per day",reduction
same,tumor volume with respect to control,"[5]; PC3, 10 mg/kg oral gavage once per day, day 10",reduced
same,concentration causing declustering of extra-centrosomes in interphase,"[6]; BT549 cells, 24 h treatment",500 nM
same,mitosis and cell fate in live cells,[7],prolonged mitosis with eventual apoptosis
"COc1ncc2cc3ccccc3nc2c1C#N [compound (B), 3-Methoxybenzo[b][1,6]naphthyridine-4-carbonitrile]",mitosis and cell fate in live imaging,[8],prolonged mitosis with an apparent apoptosis
same,pIC50,"[2]; HCC827-GR, POP10, treated 72 hrs",5.54 to 6.07
same,"recruitment of PCM proteins (Cep152, PCNT, CDK5RAP2) to interphase centrosomes",[9],enhanced amounts
same,prevention of actin-positive invasive protrusions from 3D spheres,"[10]; 5 μM, H1975T790M, HCC827-GR, A549 organoids",sufficient to prevent
same,cell death in organoids,[10]; H1975T790M organoids,activated caspase-positive cells
same,organoid growth,[10]; treated organoids,did not grow further from its original size
same,solubility relative to compound (A),[11],increased
same,"concentration not affecting microtubule dynamics, cell cycle progression or mitotic spindle assembly",[12],up to 5 μM
same,concentration not preventing formation of bipolar mitotic spindles,[12],up to 8 μM
same,tumor growth rate versus vehicle,"[13]; MDA-MB-231, 10 or 20 mg/kg/day oral gavage",significant reduction
same,tumor volume with respect to control,"[13]; MDA-MB-231, after 31 days",reduced
same,body weights of treated animals,"[13]; MDA-MB-231 model, 10 or 20 mg/kg/day oral",did not change
same,tumor growth rate versus vehicle,"[5]; PC3, 10 or 20 mg/kg/day oral gavage",significant reduction
same,tumor volume with respect to control,"[5]; PC3, after 10 days",reduced
same,body weights of treated animals,"[5]; PC3 model, 10 or 20 mg/kg/day oral",did not change
same,centrosome declustering activity (preventing extra centrosomes from clustering),[6]; cancer cells,potent; also recorded: prevented clustering of extra centrosomes
same,CPAP-tubulin interaction in cells,[14],specifically perturbs
same,stability relative to compound (A),[15],increased
C#Cc1cccc(Nc2ncnc3cc(OCCOC)c(OCCOC)cc23)c1 [erlotinib],prevention of formation of invasive protrusions,[10]; 3D organotypic cultures of H1975 and A549,not
same,centrosome clustering in H827,"[6]; H827 cells, erlotinib treatment",does not affect centrosome clustering
same,pIC50,"[16]; A549, single agent, read-out: IC50 of cell proliferation",5.29
same,pIC50,"[16]; Homo sapiens, A549, A549, addition of 1.5 μM compound (A), read-out: IC50 of erlotinib in combinatorial treatment",6.30
same,pIC50,"[16]; Homo sapiens, A549, A549, single agent, read-out: IC50 of cell proliferation",5.30
same,pIC50,"[17]; H827, combined with 750 nM compound (A), read-out: IC50 of erlotinib in combinatorial treatment",7.52
same,pIC50,"[17]; H827, single agent, read-out: IC50 of cell proliferation",5.16
"CC(=O)O[C@H]1C(=O)[C@@]2(C)[C@H]([C@H](OC(=O)c3ccccc3)[C@]3(O)C[C@H](OC(=O)[C@H](O)[C@@H](NC(=O)c4ccccc4)c4ccccc4)C(C)=C1C3(C)C)[C@]1(OC(C)=O)CO[C@@H]1C[C@@H]2O [taxol, reference compound]",MCF10A cell proliferation regardless of extra centrosomes,[3]; 100 nM,non-selectively prevented
same,centrosome clustering in MCF10A,[3]; taxol treatment,did not affect centrosome clustering
same,concentration that collapsed the spindles,[12],30 nM
